Assay type in all cases: biochemical
One assay concerns the target S6K (Homo sapiens, UniProt P23443). The experiment in a line: S6K kinase inhibition, Z'-LYTE FRET assay. The settings on record: 100 μM ATP. The source says: (§1) The ability of illustrative Benzo[c][2,7]naphthyridine Derivatives to inhibit PKA, Akt1, S6K in vitro can be determined using a Fluorescence Resonance Energy Transfer (FRET) assay, such as a Z′-LYTE™ Kinase Assay Platform, commercially available from Invitrogen (c.f. Rodems et al., ASSAY Drug Devel. Technol. 1:9-19 (2002) and Zhang et al., J. Biomol. Screen. 4:67-73 (1999)). Z′-Lyte™ assay is an in vitro FRET-based assay that utilizes differential sensitivity of phosphorylated and non-phosphorylated peptides to proteolytic cleavage. The peptide substrate (also available from Invitrogen for each of PKA, Akt1 and S6K) is labeled with two different fluorophores, a fluorescence donor at one end of the peptide and a fluorescence acceptor at the other end of the peptide. In the primary kinase reaction, the kinase phosphorylates the peptide substrate in the presence of ATP. In the secondary reaction, a site-specific protease recognizes and cleaves non-phosphorylated peptides, but not phosphorylated peptides. Cleavage disrupts FRET between the donor and acceptor fluorophores on the peptide, whereas uncleaved phosphorylated peptides maintain FRET. Based on a formula that uses the ratio of donor emission (at 460 nm) to acceptor emission (at […]) after excitation of the donor fluorophore at 400 nm, the extent of phosphorylation of the peptide substrates is calculated. IC50 values of illustrative Benzo[c][2,7]naphthyridine Derivatives, shown in Table 12, are calculated using LSW Data Analysis package add-in for Excel (Microsoft).

A further assay concerns the target PKA (Homo sapiens, UniProt P17612). The assay can be described thus: PKA kinase inhibition, Z'-LYTE FRET assay.
For the next assay, the target named is Akt1 (Homo sapiens, UniProt P31749). The experiment in a line: Akt1 kinase inhibition, Z'-LYTE FRET assay. The settings on record: 100 μM ATP.
Text: as §1

The target in a further assay is T1, PDK-1 (Homo sapiens, UniProt O15530).
T1 sequence (O15530 1-556): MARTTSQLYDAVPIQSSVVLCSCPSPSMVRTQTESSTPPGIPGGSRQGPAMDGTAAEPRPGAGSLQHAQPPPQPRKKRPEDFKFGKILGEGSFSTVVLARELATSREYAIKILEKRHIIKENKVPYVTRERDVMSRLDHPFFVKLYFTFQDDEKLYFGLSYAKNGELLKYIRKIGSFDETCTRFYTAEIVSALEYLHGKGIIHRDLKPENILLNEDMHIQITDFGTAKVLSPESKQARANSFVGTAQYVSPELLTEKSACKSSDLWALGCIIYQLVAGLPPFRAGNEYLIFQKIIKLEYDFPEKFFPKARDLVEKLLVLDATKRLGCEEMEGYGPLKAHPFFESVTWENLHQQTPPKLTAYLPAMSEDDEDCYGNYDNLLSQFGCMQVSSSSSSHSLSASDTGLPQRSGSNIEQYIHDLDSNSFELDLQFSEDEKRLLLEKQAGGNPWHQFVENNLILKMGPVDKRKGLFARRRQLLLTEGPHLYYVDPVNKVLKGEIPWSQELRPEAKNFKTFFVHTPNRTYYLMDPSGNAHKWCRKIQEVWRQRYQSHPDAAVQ
The experiment in a line: PDK-1 kinase inhibition ELISA assay (phosphorylation of His6-tagged SGK1 S422D by PDK-1). The settings on record: PDK-1 ELISA, Table 11; read-out: Average IC50.

pIC50: −log10 of the molar value. Where only a bound is given, the exact number is not on record here.

Chain of Akt1 (P31749 whole entry, species assumed): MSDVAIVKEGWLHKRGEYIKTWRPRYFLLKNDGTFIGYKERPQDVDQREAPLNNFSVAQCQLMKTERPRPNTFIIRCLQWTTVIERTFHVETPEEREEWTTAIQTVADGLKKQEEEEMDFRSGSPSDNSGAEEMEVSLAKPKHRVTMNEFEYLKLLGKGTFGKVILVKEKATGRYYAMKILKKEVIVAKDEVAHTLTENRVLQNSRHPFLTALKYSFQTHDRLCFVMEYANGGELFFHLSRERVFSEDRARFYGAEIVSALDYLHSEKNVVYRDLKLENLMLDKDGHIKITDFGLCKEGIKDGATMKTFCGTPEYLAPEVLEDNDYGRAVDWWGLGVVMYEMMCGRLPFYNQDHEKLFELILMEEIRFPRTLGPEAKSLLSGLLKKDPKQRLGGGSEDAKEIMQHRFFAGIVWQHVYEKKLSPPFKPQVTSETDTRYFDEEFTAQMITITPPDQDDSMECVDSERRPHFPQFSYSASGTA
Chain of S6K (P23443 whole entry): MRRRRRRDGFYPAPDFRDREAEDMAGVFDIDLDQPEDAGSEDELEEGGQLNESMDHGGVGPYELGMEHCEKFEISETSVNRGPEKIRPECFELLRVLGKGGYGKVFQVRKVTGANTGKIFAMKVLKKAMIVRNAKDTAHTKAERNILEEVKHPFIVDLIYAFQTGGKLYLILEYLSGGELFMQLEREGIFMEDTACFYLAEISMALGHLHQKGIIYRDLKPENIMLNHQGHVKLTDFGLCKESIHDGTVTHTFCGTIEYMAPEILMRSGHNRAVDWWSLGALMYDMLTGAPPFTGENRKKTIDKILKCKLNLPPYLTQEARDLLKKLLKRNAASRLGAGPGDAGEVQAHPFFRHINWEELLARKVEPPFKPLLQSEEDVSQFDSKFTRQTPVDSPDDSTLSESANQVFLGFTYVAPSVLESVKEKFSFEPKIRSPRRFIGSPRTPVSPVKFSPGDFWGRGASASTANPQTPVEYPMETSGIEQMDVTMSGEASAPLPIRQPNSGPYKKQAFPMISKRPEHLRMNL
Experimental for PDK-1: In an in vitro assay, His6-tagged SGK1 with S422D mutation (formerly Upstate Biotech, now Millipore) on Thr256 is allowed to be phosphorylated by PDK-1 in the presence of a Benzo[c][2,7]naphthyridine Derivative. After 20 minutes, the reaction is quenched via the addition of urea. The His6-tagged SGK1 is then bound to 96 well Ni-NTA HisSorb plates (Quiagen, Inc., Valencia, Calif.) and phosphorylated SGK1 is quantitatively detected using rabbit derived anti-phospho SGK antibody (Cell Signaling Technology, Danvers, Mass.) as the primary antibody and horseradish peroxidase (HRP)—coupled anti-rabbit antibody (formerly Zymed, now Invitrogen, Carlsbad, Calif.) as the secondary antibody. HRP is then detected using a chemiluminescent substrate (Pierce Chemical Co., Woburn, Mass.).

In the case of `Nc1nc(-c2cncc(OC[C@@H](N)Cc3ccccc3)c2)cc2c1cnc1cc(C#CCCn3ccnc3)ccc12` [Ia-5, 2-(5-{[(2S)-2-Amino-3-phenylpropyl]oxy}pyridin-3-yl)-8-[4-(1H-imidazol-1-yl)but-1-yn-1-yl]benzo[c]-2,7-naphthyridin-4-amine], the pIC50 – broadly, the negative decadic logarithm of the IC50, by convention in mol/L – is 6.28 against S6K, 6.47 against PKA (20 μM ATP), 6.06 at PKA (100 μM ATP) and 6.30 against Akt1.

Regarding `COc1cc2c(cc1OCCCCl)ncc1c(N)nc(-n3ccnc3)cc12` [Ia-17, 8-(3-Chloropropoxy)-2-(1H-imidazol-1-yl)-9-methoxybenzo[c][2,7]naphthyridin-4-amine], the pIC50 is below 5.70 against S6K; below 5.00 on PKA (20 μM ATP); below 5.70 against PKA (100 μM ATP); 6.55 against Akt1; 6.98 on PDK-1.

Take `COc1cc2c(cc1OCCCl)ncc1c(N)nc(-n3ccnc3)cc12` [Ia-21, 8-(2-chloroethoxy)-2-(1H-imidazol-1-yl)-9-methoxybenzo[c][2,7]naphthyridin-4-amine]: the pIC50 against S6K is 5.81; on PKA (20 μM ATP), below 4.70; against PKA (100 μM ATP) it was below 5.70; against Akt1 it was 6.52; on PDK-1, 7.19.

For `Nc1nc(-n2ccnc2)cc2c1cnc1cc(/C=C/CCN3CCCC3)ccc12` [Ia-24, 2-(1H-imidazol-1-yl)-8-[(1E)-4-pyrrolidin-1-ylbut-1-en-1-yl]benzo[c]-2,7-naphthyridin-4-amine], the pIC50 at S6K is 5.99; against PKA (20 μM ATP), 6.62; against PKA (100 μM ATP), below 5.70; at Akt1, 7.12; at PDK-1, 7.01.

For the compound `COc1cc2c(cc1OCCCN1CCCC1)ncc1c(N)nc(-c3cccnc3)cc12` [Ia-31, 9-Methoxy-2-pyridin-3-yl-8-(3-pyrrolidin-1-ylpropoxy)benzo[c]-2,7-naphthyridin-4-amine], the pIC50 at S6K is 6.37; at PKA (20 μM ATP), below 4.70; at PKA (100 μM ATP), below 5.70; against Akt1, 6.77; on PDK-1 it was 6.92.

For `COc1cc2c(cc1O)ncc1c(N)nc(-n3ccnc3)cc12` [Ia-33, 4-Amino-2-(1H-imidazol-1-yl)-9-methoxybenzo[c]-2,7-naphthyridin-8-ol], the pIC50 on S6K was below 5.70; against PKA (20 μM ATP), 5.60; against PKA (100 μM ATP), below 5.70; at Akt1, 5.70; on PDK-1, 7.05.

As for `COc1cc2ncc3c(N)nc(-c4cncc(OC[C@@H](N)CN5CCc6ccccc65)c4)cc3c2cc1OC` [Ib-46, 2-(5-{[(2S)-2-amino-3-(2,3-dihydro-1H-indol-1-yl)propyl]oxy}pyridin-3-yl)-8,9-dimethoxybenzo[c]-2,7-naphthyridin-4-amine], the negative logarithm of the IC50 (pIC50) at S6K is 7.19; against PKA (20 μM ATP) it was above 7.49; on PKA (100 μM ATP) it was 6.75; at PDK-1, 8.10.

For the compound `COc1cc2ncc3c(N)nc(-c4cncc(OC[C@H](N)Cc5ccc(F)cc5)c4)cc3c2cc1OC` [Ib-47, 2-(5-{[(2R)-2-amino-3-(4-fluorophenyl)propyl]oxy}pyridin-3-yl)-8,9-dimethoxybenzo[c]-2,7-naphthyridin-4-amine], the pIC50 at S6K was 7.03; on PKA (20 μM ATP), 7.60; against PKA (100 μM ATP), 6.60; against Akt1 it was 7.92; at PDK-1, 7.82.

On to `COc1cc2ncc3c(N)nc(-c4cncc(OC[C@H](N)CN5Cc6ccccc6C5)c4)cc3c2cc1OC` [Ib-48, 2-(5-{[(2R)-2-amino-3-(1,3-dihydro-2H-isoindol-2-yl)propyl]oxy}pyridin-3-yl)-8,9-dimethoxybenzo[c]-2,7-naphthyridin-4-amine], for which the pIC50 at S6K is 6.39; at PKA (20 μM ATP), 5.57; at PKA (100 μM ATP) it was below 5.70; on Akt1, 6.40; at PDK-1, 7.47.
